Experimental data reported in US10744128B2, “6-(5-membered heteroaryl)isoquinolin-3-yl-(5-membered heteroaryl) carboxamides and preparation and use thereof” (Samumed, LLC, priority 2017, dated 2020).

Experiments:
[1] = tested on: SW480 colon carcinoma cells; assay: Cell viability assay (CellTiter-Glo) in SW480 cells; assay type: cell-based, human; conditions: Homo sapiens, 96 h, four days
[2] = tested on: Wnt-responsive promoter (Sp5-Luc reporter) in SW480 colon carcinoma cells; assay: Sp5-Luc reporter gene screening assay for Wnt activity in SW480 cells; assay type: cell-based, human; conditions: Homo sapiens, 36 to 48 hours, luminescence
Outline: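 SW480 cells stably carrying a luciferase reporter under an Sp5 promoter with eight TCF/LEF sites, plated at 4,000 cells/well in DMEM with 1% FBS and incubated 36 to 48 hours at 37° C. Luminescence normalized to DMSO-only cells; EC50 fitted by four-parameter nonlinear regression.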

[3] = tested on: primary human fibroblasts derived from IPF patients (LL29 cells), α-smooth muscle actin; assay: Inhibition of fibrotic process: αSMA in TGF-β1 treated LL29 fibroblasts; assay type: cell-based; conditions: Homo sapiens, Fibroblast; for EC50: 96 h, LL29 cells, TGF-β1 20 ng/mL, 4 days, % cells positive for αSMA; for inhibition at 10 µM: read-out: percent inhibition at 10 μM
Outline: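 LL29 fibroblasts from IPF patients, in F12 medium with 1% FBS, treated with TGF-β1 plus compound; TGF-β1 with DMSO as positive control, DMSO alone as negative control. After 4 days' incubation, SYTOX green nucleic acid stain added at 1 μM final, 30 min at room temperature.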

recombinant GSK3β kinase = recombinant GSK3β kinase (Homo sapiens (Human), UniProt P49841); assay: GSK3β kinase assay (Ser/Thr 09 peptide Z-lyte, FRET); assay type: biochemical; conditions: GSK3β kinase, 46 μM ATP, one hour; method calls values IC50
Chain of recombinant GSK3β kinase (P49841 whole entry): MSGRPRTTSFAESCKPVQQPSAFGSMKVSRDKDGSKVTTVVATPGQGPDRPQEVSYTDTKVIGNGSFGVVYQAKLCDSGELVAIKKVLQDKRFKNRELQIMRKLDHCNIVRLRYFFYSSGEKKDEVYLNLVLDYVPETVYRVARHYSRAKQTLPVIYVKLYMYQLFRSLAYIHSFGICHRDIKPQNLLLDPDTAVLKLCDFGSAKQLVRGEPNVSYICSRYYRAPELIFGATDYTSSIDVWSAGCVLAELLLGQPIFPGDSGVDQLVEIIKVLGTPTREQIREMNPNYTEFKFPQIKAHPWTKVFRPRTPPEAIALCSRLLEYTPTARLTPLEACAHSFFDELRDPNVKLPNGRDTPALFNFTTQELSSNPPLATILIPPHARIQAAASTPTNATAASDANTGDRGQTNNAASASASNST

IL-6 = IL-6 inhibition in LPS-stimulated human peripheral blood mononuclear cells (HTRF); assay type: cell-based; conditions: Homo sapiens, PBMC; for EC50: huPBMCs, LPS 50 ng/mL, 22 hours, IL-6 HTRF; for inhibition at 10 µM: read-out: percent inhibition at 10 μM
Outline: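 Fresh human PBMCs at 1×10e6 cells/mL in 1% FBS-RPMI were pretreated with compound for 2 h, then stimulated with 50 ng/mL E. coli 0111:B4 LPS for a further 22 h at 37 °C. IL-6 was measured by HTRF (665/620 nm ratio). Values were normalized to DMSO and fitted 4-parameter for EC50.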

[4] = target: recombinant DYRK1A kinase (Homo sapiens (Human), UniProt Q13627); assay: DYRK1A kinase assay (Ser/Thr 18 peptide Z-lyte, FRET); conditions: DYRK1A kinase, 30 μM ATP, one hour; method calls values IC50
Description: Each compound was dissolved in DMSO as a 10 mM stock and used to prepare compound source plates.
This is a non-radioactive assay using fluorescence resonance energy transfer (FRET) between coumarin and fluorescein to detect kinase activity which is represented as a ratio of coumarin emission/fluorescein emission.
The mixture was allowed to incubate with the representative compounds for one hour at room temperature. All reactions were performed in duplicate. Unphosphorylated (“0% Control”) and phosphorylated (“100% control”) forms of Ser/Thr 18 served as control reactions. Additionally, an 11-point dose-response curve of Staurosporine (1 uM top) was run to serve as a positive compound control.
After incubation, Development Reagent A was diluted in Development Buffer then added to the reaction and allowed to further incubate for one hour at room temperature.
Dose-response curves were generated and inhibitory concentration (IC50) values were calculated using non-linear regression curve fit in the Dotmatics' Studies Software (Bishops Stortford, UK).

Structure (SMILES)	EC50 [1]	EC50 [2]	EC50 [3]	inhibition at 10 µM [3]	EC50 (recombinant GSK3β kinase)	EC50 (IL-6)	inhibition at 10 µM (IL-6)	EC50 [4]
Cc1ncc(C(=O)Nc2cc3cc(-c4cncn4C)ccc3cn2)n1C [Compound 51, 1,2-Dimethyl-N-(6-(1-methyl-1H-imidazol-5-yl)isoquinolin-3-yl)-1H-imidazole-5-carboxamide]	844 nM	466 nM	> 10000 nM	6.5%	641 nM	> 10000 nM	10.9%	4 nM
Cn1cnc(C(=O)Nc2cc3cc(-c4cncn4C)ccc3cn2)n1 [Compound 52, 1-Methyl-N-(6-(1-methyl-1H-imidazol-5-yl)isoquinolin-3-yl)-1H-1,2,4-triazole-3-carboxamide]	3610 nM	2180 nM	> 10000 nM	33.8%	5030 nM	> 10000 nM	1.1%	9 nM
Cc1nc(C(=O)Nc2cc3cc(-c4cncn4C)ccc3cn2)co1 [Compound 53, 2-Methyl-N-(6-(1-methyl-1H-imidazol-5-yl)isoquinolin-3-yl)oxazole-4-carboxamide]	3200 nM	1890 nM	2420 nM	–	821 nM	> 10000 nM	47.5%	14 nM
CC(C)c1nc(C(=O)Nc2cc3cc(-c4cncn4C)ccc3cn2)co1 [Compound 54, 2-Isopropyl-N-(6-(1-methyl-1H-imidazol-5-yl)isoquinolin-3-yl)oxazole-4-carboxamide]	3730 nM	2130 nM	3210 nM	–	1920 nM	6510 nM	–	18 nM
Cc1coc(C(=O)Nc2cc3cc(-c4cncn4C)ccc3cn2)n1 [Compound 55, 4-Methyl-N-(6-(1-methyl-1H-imidazol-5-yl)isoquinolin-3-yl)oxazole-2-carboxamide]	3070 nM	1120 nM	3810 nM	–	986 nM	9480 nM	–	7 nM
Cc1csc(C(=O)Nc2cc3cc(-c4cncn4C)ccc3cn2)n1 [Compound 56, 4-Methyl-N-(6-(1-methyl-1H-imidazol-5-yl)isoquinolin-3-yl)thiazole-2-carboxamide]	3070 nM	2310 nM	3190 nM	–	9990 nM	8920 nM	–	5 nM
Cc1nc(C(=O)Nc2cc3cc(-c4cncn4C)ccc3cn2)cs1 [Compound 57, 2-Methyl-N-(6-(1-methyl-1H-imidazol-5-yl)isoquinolin-3-yl)thiazole-4-carboxamide]	1810 nM	2550 nM	2830 nM	–	1610 nM	> 10000 nM	19.6%	6 nM
Cc1nnc(C(=O)Nc2cc3cc(-c4cncn4C)ccc3cn2)o1 [Compound 58, 5-Methyl-N-(6-(1-methyl-1H-imidazol-5-yl)isoquinolin-3-yl)-1,3,4-oxadiazole-2-carboxamide]	2960 nM	1310 nM	1280 nM	–	4340 nM	> 10000 nM	9.5%	9 nM
Cc1nnc(C(=O)Nc2cc3cc(-c4cncn4C)ccc3cn2)s1 [Compound 59, 5-Methyl-N-(6-(1-methyl-1H-imidazol-5-yl)isoquinolin-3-yl)-1,3,4-thiadiazole-2-carboxamide]	3320 nM	1890 nM	1420 nM	–	1420 nM	> 10000 nM	0%	4 nM
Cc1ncc(-c2ccc3cnc(NC(=O)c4cnn(C)c4)cc3c2)n1C [Compound 60, N-(6-(1,2-Dimethyl-1H-imidazol-5-yl)isoquinolin-3-yl)-1-methyl-1H-pyrazole-4-carboxamide]	405 nM	121 nM	770 nM	–	4010 nM	1580 nM	–	4 nM
